# Measurements: patent US11986463B2, “Combination therapy for the treatment of gastrointestinal stromal tumor” (Deciphera Pharmaceuticals, LLC, priority 2018, dated 2024)
# pIC50: −log10 of the molar value. Where two headings read alike, the source gives them in different places.
# What was measured:
# [1] = system: GIST-T1/D816E imatinib resistant cells; assay: Colony outgrowth assay, GIST-T1/D816E; format: cell-based
# Text: (§1) The outgrown cell colonies were stained with crystal violet and counted.
# GIST T1 xenograft = GIST T1 xenograft model; format: in vivo, mice; conditions: for mice with partial tumor regression during the dosing period / mice with complete tumor regression during the dosing period: days 10-27; for mice remaining in partial tumor regression at the end of study: end of study day 66
# Procedure: The GIST T1 xenograft model was performed in compliance with all the laws, regulations and guidelines of the National Institutes of Health (NIH) and with the approval of the Animal Care and Use Committee of MI Bioresearch (Ann Arbor, MI), an AAALAC accredited facility. All mice had food and water ad libitum. […] Female Envigo nude mice (HsdCrl:Athymic Nude-NU-Foxn1nu; 6-7 weeks old) were inoculated subcutaneously just below the right high axilla with five million cells in Dulbecco's Phosphate Buffered Saline mixed with an equal volume of Matrigel, using a 27 gauge needle and syringe. When tumor burdens reached 117 mm^3 on average on day 10, mice were randomly assigned into groups such that the mean tumor burden for all groups was within 10% of the overall mean tumor burden for the study population. […] On Day 27, all animals were placed on control diet to monitor tumor regrowth. Tumor volume and body weight were measured thrice weekly. Tumor burden (mg) was estimated from caliper measurements by the formula: tumor burden (mg=mm^3)=(length×width^2)/2.
# [2] = system: GIST-T1/T670I imatinib resistant cells; assay: Colony outgrowth assay, GIST-T1/T670I; format: cell-based
# Text: as §1
# [3] = system: GIST-T1 (57 bp exon 11 deletion) imatinib sensitive cells; assay: Colony outgrowth assay, GIST-T1; format: cell-based
# Text: as §1
# BCRP = molecular target: T1, BCRP (Homo sapiens, UniProt Q9UNQ0); assay: BCRP vesicular transport inhibition assay; format: biochemical; conditions: human; 0.04 μM, lowest concentration tested; read-out: inhibition of the transport of the probe substrate of BCRP
# T1 construct: inside-out membrane vesicles
# T1 sequence (Q9UNQ0 1-655): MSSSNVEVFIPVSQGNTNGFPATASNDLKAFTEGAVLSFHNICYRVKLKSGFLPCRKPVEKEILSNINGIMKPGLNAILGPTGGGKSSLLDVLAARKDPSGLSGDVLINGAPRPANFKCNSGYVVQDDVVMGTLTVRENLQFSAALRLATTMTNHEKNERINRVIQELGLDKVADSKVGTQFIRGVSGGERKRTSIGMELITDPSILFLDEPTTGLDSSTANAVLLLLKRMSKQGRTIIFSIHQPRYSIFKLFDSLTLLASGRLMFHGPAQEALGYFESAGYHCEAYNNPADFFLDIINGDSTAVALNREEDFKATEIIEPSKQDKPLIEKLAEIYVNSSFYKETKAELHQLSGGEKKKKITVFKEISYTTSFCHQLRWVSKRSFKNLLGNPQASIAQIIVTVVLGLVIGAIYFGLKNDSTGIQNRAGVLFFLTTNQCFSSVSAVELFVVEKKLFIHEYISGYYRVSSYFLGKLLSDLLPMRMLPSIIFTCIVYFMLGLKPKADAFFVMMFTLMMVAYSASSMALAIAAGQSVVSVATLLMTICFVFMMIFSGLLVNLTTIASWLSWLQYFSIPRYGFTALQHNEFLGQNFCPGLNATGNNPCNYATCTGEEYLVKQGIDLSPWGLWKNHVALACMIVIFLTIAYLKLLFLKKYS
# Procedure: (§2) The IC50 value was estimated to be approximately 0.04 μM.
# [4] = molecular target: T2, human efflux transporter BCRP (Homo sapiens, UniProt Q9UNQ0); assay: BCRP vesicular transport inhibition assay; format: biochemical
# T2 construct: inside-out membrane vesicles
# T2 sequence (Q9UNQ0 1-655): T1 sequence (Q9UNQ0 1-655)
# Procedure: as §2
# [5] = system: Ba/F3 cells transformed with oncogenic KIT V560D mutant; conditions: 100 nM, 250 nM or 500 nM imatinib single agent
# Procedure: A saturation mutagenesis study was performed in Ba/F3 cells transformed with oncogenic KIT V560D mutant. DNA nicking was induced by N-ethyl-N-nitrosourea (ENU) for 18 hours to generate additional mutations in the KIT gene or other genes in a random fashion. Assays were conducted in 6 well plates with 100 cells seeded per well. […] These cells were subjected to PCR and sequencing of the KIT gene to determine the presence of a resistant secondary mutation induced by the ENU treatment.
# [6] = low dose Compound A approximately 25 mg/kg/day in diet, trametinib 0.5 mg/kg BID where combined
compound,measurement,setting,value
"CCn1c(=O)c(-c2cc(NC(=O)Nc3ccccc3)c(F)cc2Br)cc2cnc(NC)cc21 [Compound A, 1-[4-bromo-5-[1-ethyl-7-(methylamino)-2-oxo-1,2-dihydro-1,6-naphthyridin-3-yl]-2-fluorophenyl]-3-phenylurea]",GIST T1/D816E colony outgrowth,"[1]; Compound A 50 nM, 100 nM or 250 nM single agent (FIG. 14B)",81-93 % of vehicle control
same,mice with partial tumor regression during the dosing period,GIST T1 xenograft; high dose Compound A approximately 100 mg/kg/day in diet,4/10
same,mice with complete tumor regression during the dosing period,"GIST T1 xenograft; high dose Compound A approximately 100 mg/kg/day in diet, trametinib 0.5 mg/kg BID where combined",6/10
same,mice remaining in partial tumor regression at the end of study,"GIST T1 xenograft; high dose Compound A approximately 100 mg/kg/day, trametinib 0.5 mg/kg BID where combined",1/10
same,mice with complete tumor regression during the dosing period,GIST T1 xenograft; [6],2/10
same,mice with partial tumor regression during the dosing period,GIST T1 xenograft; [6],6/10
same,mice remaining in partial tumor regression at the end of study,"GIST T1 xenograft; low dose Compound A approximately 25 mg/kg/day, trametinib 0.5 mg/kg BID where combined",2/10
same,GIST T1/T670I colony outgrowth,"[2]; Compound A 100 nM or 250 nM single agents, dose dependent (FIG. 10C)",78-89 % of vehicle control
same,GIST T1 colony outgrowth,[3]; Compound A single agents (FIG. 14A),37-41 % of vehicle control
same,inhibition at 0.04 µM,BCRP,44%
same,pIC50,"[4]; 7 concentrations, vesicular transport inhibition, read-out: IC50, BCRP (estimated)",~7.40
same,pIC50,"[4]; read-out: IC50, BCRP efflux transporter",7.40
"Cc1ccc(NC(=O)c2ccc(CN3CCN(C)CC3)cc2)cc1Nc1nccc(-c2cccnc2)n1 [imatinib, reference compound]",outgrowth of resistant secondary KIT mutations,[5],"T670I, K807E, and/or D816V imatinib-resistant secondary KIT mutants were identified"
same,reduction of GIST-T1/T670I colonies,[2]; imatinib 500 nM single agent (FIG. 10C),does not show any reduction of colonies
"CCn1c(=O)c(-c2cc(NC(=O)Nc3ccccc3)c(F)cc2Br)cc2cnc(N)cc21 [Compound B, 1-(5-(7-amino-1-ethyl-2-oxo-1,2-dihydro-1,6-naphthyridin-3-yl)-4-bromo-2-fluorophenyl)-3-phenylurea]",GIST T1/D816E colony outgrowth,"[1]; Compound B 50 nM, 100 nM or 250 nM single agent (FIG. 9B)",59-84 % of vehicle control
same,GIST T1/D816E colony outgrowth,"[1]; Compound B 50 nM, 100 nM or 250 nM single agent (FIG. 15)",52-95 % of vehicle control
same,GIST T1/D816E colony outgrowth,[1]; Compound B 100 nM or 250 nM single agent (FIG. 13B),58-84 % of vehicle control
same,GIST T1/D816E colony outgrowth,[1]; Compound B 100 nM or 250 nM single agents (FIG. 11B),74-83 % of vehicle control
same,GIST T1/T670I colony outgrowth,"[2]; Compound B 50 nM, 100 nM, 250 nM single agents (FIG. 9C)",75-78 % of vehicle control
same,GIST T1/T670I colony outgrowth,[2]; Compound B 100 nM or 250 nM single (FIG. 13C),75-78 % of vehicle control
same,GIST T1/T670I colony outgrowth,[2]; Compound B 100 nM or 250 nM single agent (FIG. 11C),72-78 % of vehicle control
same,reduction of GIST T1 colony outgrowth compared to vehicle control,[3]; Compound B single agent (FIG. 9A),42-54%
same,GIST T1 colony outgrowth,[3]; Compound B single agent (FIG. 13A),42-54 % of vehicle control
same,GIST T1 colony outgrowth,[3]; each concentration of Compound B as a single agent (FIG. 11A),27-31 % of vehicle control
